# Test results reported in patent publication US20060154984A1, “Therapeutic use of acyl glycerols and the nitrogen- and sulphur- containing analogues thereof” (priority 2003, published 2006).
# Legend:
# LDL = LDL oxidation by copper, conjugated diene formation (OD 234 nm); assay type: biochemical; details: 10^−4 M; for LDL oxidation rate (rate of conjugated diene formation): copper alone 3 nmol/min/mg of LDL; for decrease in the maximum amount of conjugated dienes formed: copper alone 496 nmol per mg of LDL; for increase in the lag phase: relative to copper alone
# Method: Oxidation of LDL is an important modification which plays a major role in the onset and development of atherosclerosis (Jurgens, Hoff et al. 1987). […] Unless otherwise indicated, all reagents were from Sigma (St Quentin, France).
# LDL were prepared as described by Lebeau et al. (Lebeau, Furman et al. 2000). The solutions of the test compounds were prepared at 10^−2 M in ethanol and diluted in PBS so that the final concentration ranged from 0.1 to 100 μM with a total ethanol concentration of 1% (VN).
# Before oxidation, EDTA was removed from the LDL preparation by dialysis. The oxidation reaction was then carried out at 30° C. by adding 100 μl of 16.6 μM CuSO4 to 800 μl of LDL (125 μg protein/ml) and 100 μl of a test compound solution. The formation of dienes, the species to be followed, was measured by the optical density at 234 nm in the samples treated with the compounds in the presence or absence of copper. Optical density at 234 nm was measured every 10 minutes for 8 hours on a thermostated spectrophotometer (Kontron Uvikon 930). The analyses were carried out in triplicate. A compound was considered to have antioxidant activity when it shifted the lag phase latency relative to the control sample. […] FIG. 4 presents an example of the results obtained with the inventive compounds.
# PPARα = molecular target: T1, PPARα (Homo sapiens, UniProt Q07869); assay: Gal4/PPARα transactivation system in HepG2 cells (luciferase reporter); assay type: cell-based; details: HepG2 cells transfected with Gal4/PPARα plasmids, 24 h
# T1 construct: expressed in transfected cells; host or cells: HepG2
# T1 sequence (Q07869 239-466 limits assumed): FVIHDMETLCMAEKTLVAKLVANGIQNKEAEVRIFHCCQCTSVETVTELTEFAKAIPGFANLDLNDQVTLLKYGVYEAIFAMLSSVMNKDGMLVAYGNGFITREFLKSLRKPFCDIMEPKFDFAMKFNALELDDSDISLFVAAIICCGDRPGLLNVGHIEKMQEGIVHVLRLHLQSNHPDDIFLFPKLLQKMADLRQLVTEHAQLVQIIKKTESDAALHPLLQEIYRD
# Method: PPAR activation was tested in vitro in RK13 fibroblast cell lines or in a hepatocyte line HepG2 by measuring the transcriptional activity of chimeras composed of the DNA binding domain of the yeast gal4 transcription factor and the ligand binding domain of the different PPARs. The example below is given for HepG2 cells.
# HepG2 cells were from ECACC (Porton Down, UK) and were grown in DMEM medium supplemented with 10% (VN) fetal calf serum, 100 U/ml penicillin (Gibco, Paisley, UK) and 2 mM L-glutamine (Gibco, Paisley, UK). The culture medium was changed every two days. Cells were kept at 37° C. in a humidified 95% air/5% CO2 atmosphere.
# The plasmids pG5TkpGL3, PRL-CMV, pGal4-hPPARα, pGal4-hPPARγ and pGal4-f have been described by Raspe et al. (Raspe, Madsen et al. 1999). The pGal4-mPPARα and pGal4-hPPARβ constructs were obtained by cloning PCR-amplified DNA fragments corresponding to the DEF domains of the mouse PPARα and […] nuclear receptors, respectively, into the pGal4-f vector.
# HepG2 cells were seeded in 24-well culture dishes at 5×10^4 cells/well and transfected for 2 hours with the reporter plasmid pG5TkpGL3 (50 ng/well), the expression vectors pGal4-f, pGal4-mPPARα, pGal4-hPPARα, pGal4-hPPARγ, or pGal4-hPPARβ (100 ng/well) and the transfection efficiency control vector pRL-CMV (1 ng/well) according to the previously described protocol (Raspe, Madsen et al. 1999), then incubated for 36 hours with the test compounds. At the end of the experiment, the cells were lysed (Gibco, Paisley, UK) and luciferase activity was determined with a Dual-Luciferase™ Reporter Assay System kit (Promega, Madison, Wis., USA) according to the supplier's instructions. The protein content of the cell extracts was then measured with the Bio-Rad Protein Assay kit (Bio-Rad, Munich, Germany) as directed by the supplier. […] FIG. 3 gives an example of the results obtained with the inventive compounds.
# FIG. 3: HepG2 cells transfected with Gal4/PPARα plasmids were incubated with different concentrations (5, 15, 50 and 100 μM) of the inventive comopunds (Ex 2a, Ex 4a, Ex 4p, Ex 5a, Ex 7 and Ex 11) for 24 h and with different concentrations of the vehicle (PC) noted 1, 2, 3, 4 as controls for the 5, 15, 50 and 100 μM concentrations of the inventive compounds (according to the 4:1 (m/m) ratio described in example 2 (Method of preparation of the inventive compounds for in vitro studies)). The results are expressed as the induction factor (luminescent signal of treated cells divided by luminescent signal of untreated cells) after the different treatments. […] The induction factors for inventive compound Ex 4p were 35 at 100 μM, 44 at 50 μM, 36 at 15 μM and 24 at 5 μM. The induction factors for compound Ex 5a were 32 at 100 μM, 34 at 50 μM, 15 at 15 μM and 4 at 5 μM. Finally, inventive compound Ex 7 induced a 19-fold induction at 100 μM, 19 at 50 μM, 7 at 15 μM and 1.5 at 5 μM. In contrast, when the cells were incubated with the vehicle (PC liposome), no significant induction was observed.
induction factor (luminescent signal of treated cells divided by luminescent signal of untreated cells) (PPARα; 5 μM) [fold],induction factor (luminescent signal of treated cells divided by luminescent signal of untreated cells) (PPARα; 15 μM) [fold],induction factor (luminescent signal of treated cells divided by luminescent signal of untreated cells) (PPARα; 50 μM) [fold],induction factor (luminescent signal of treated cells divided by luminescent signal of untreated cells) (PPARα; 100 μM) [fold],melting point,Compound,LDL oxidation rate (rate of conjugated diene formation) (LDL),decrease in the maximum amount of conjugated dienes formed (LDL) [%],lag phase for conjugated diene formation (LDL; copper alone 104 minutes) [min],increase in the lag phase (LDL) [%]
4,15,34,32,–,"CCCCCCCCCCCCCCSCC(=O)NC(CO)CO [Ex 5a, 2-tetradecylthioacetamidopropane-1.3-diol]",–,–,–,–
24,36,44,35,–,"CCCCCCCCCCCCCCSCC(=O)OC(COC(C)=O)COC(C)=O [Ex 4p, 1,3-diacetyl-2-tetradecylthioacetylglycerol]",–,–,–,–

# Further lines, the compound ahead of its results:
Compound,induction factor (luminescent signal of treated cells divided by luminescent signal of untreated cells) (PPARα; 5 μM) [fold],induction factor (luminescent signal of treated cells divided by luminescent signal of untreated cells) (PPARα; 15 μM) [fold],induction factor (luminescent signal of treated cells divided by luminescent signal of untreated cells) (PPARα; 50 μM) [fold],induction factor (luminescent signal of treated cells divided by luminescent signal of untreated cells) (PPARα; 100 μM) [fold],melting point,LDL oxidation rate (rate of conjugated diene formation) (LDL),decrease in the maximum amount of conjugated dienes formed (LDL) [%],lag phase for conjugated diene formation (LDL; copper alone 104 minutes) [min],increase in the lag phase (LDL) [%]
"CCCCCCCCCCCCCCCC(=O)OCC(COC(=O)CCCCCCCCCCCCCCC)OC(=O)CSCCCCCCCCCCCCCC [Ex 4g, 1,3-dipalmitoyl-2-tetradecylthioacetylglycerol]",–,–,–,–,–,1.8 nmol/min/mg of LDL,31,282,170
"1,2-(dipalmitoyloxy)-3-tetradecylthioacetylaminopropane [Ex 9]",–,–,–,–,–,did not significantly alter,–,–,33
"CCCCCCCCCCCCCCSCC(=O)NCC(O)CO (stereo not drawn) [Ex 7, 3-(tetradecylthioacetylamino)propane-1,2-diol]",1.5,7,19,19,–,–,–,–,–
"CCCCC/C=C\C/C=C\CCCCCCCC(=O)OCC(COC(=O)CCCCCCC/C=C\C/C=C\CCCCC)OC(=O)CSCCCCCCCCCCCCCC [Ex 4h, 1,3-dilinoleoyl-2-tetradecylthioacetylglycerol]",–,–,–,–,–,2.5 nmol/min/mg of LDL,24,–,43
"CCCCCCCCCCCCCCCC(=O)OC(COC(=O)CSCCCCCCCCCCCCCC)COC(=O)CSCCCCCCCCCCCCCC [Ex 4o, 1.3-ditetradecylthioacetyl-2-palmitoyl-glycerol]",–,–,–,–,–,did not significantly alter,–,–,37
"CCCCCCCCCCCCCCSCC(=O)OCC(O)CO (stereo not drawn) [Ex 2a, 1-tetradecylthioacetylglycerol]",17,31,41,62,–,did not significantly alter,–,–,67
CCCCCCCCCCCCCCCC(=S)OC(CN)CN.Cl.Cl,–,–,–,–,224 °C (dec.),–,–,–,–
